# Laboratory results published in US20060004104A1, “Methods and compositions for treatment of cancer pain” (priority 2002, published 2006).
# Assays:
# Assay type in all cases: in vivo
# [1] = test system: intra-tibial MRMT-1 rat mammary gland carcinoma cells (bone cancer); test: Rat model of bone cancer pain: radiologically observed structural changes and bone mineral density
# Experimental: Adult female rats are given intra-tibial injections of MRMT-1 rat mammary gland carcinoma cells (3 μl, 10^7 cells/ml).
# [2] = test system: intra-tibial MRMT-1 rat mammary gland carcinoma cells (bone cancer pain); test: Rat model of bone cancer pain: weight-bearing difference (hind limb sparing); conditions: for weight-bearing difference between contralateral and ipsilateral paw: measured 1 hour after drug administration
# Experimental: Adult female rats are given intra-tibial injections of MRMT-1 rat mammary gland carcinoma cells (3 μl, 10^7 cells/ml). These animals gradually develop mechanical hyperalgesia, mechanical allodynia (skin sensitivity to non-noxious stimuli) and hind limb sparing, beginning on day 12-14 following cell injection. […] Intra-tibial inoculation of MRMT-1 cells induces a time-dependent hypersensitivity in the ipsilateral limb, measured as a shift in body weight to the contralateral limb. The increase in weight-bearing difference between contralateral and ipsilateral paw (weight shift from the affected to the unaffected limb) is evident by day 14 post-inoculation and continues to increase until day 20. […] This effect is significant for COX189 on days 10, 14, 17 and 20 as well as for valdecoxib (30 mg/kg, p.o.) on day 20. […] Lower doses are not studied. […] The treatments induces a progressive and long-lasting reduction in hypersensitivity, since the weight-bearing difference is also attenuated when measured 1 h before the first daily treatment. This preventative effect reaches significant levels for all three treatments on days 14 and 17. There is no significant difference between the effects measured before and after COX189 administration on each day for any individual treatment.
# [3] = test system: intra-tibial MRMT-1 rat mammary gland carcinoma cells (bone cancer pain); test: Rat model of bone cancer pain: mechanical allodynia (static and dynamic); conditions: day 20; for static allodynia (punctuate stimulus), ipsilateral paw: 90 minutes after the last administration
# Experimental: Adult female rats are given intra-tibial injections of MRMT-1 rat mammary gland carcinoma cells (3 μl, 10^7 cells/ml). These animals gradually develop mechanical hyperalgesia, mechanical allodynia (skin sensitivity to non-noxious stimuli) and hind limb sparing, beginning on day 12-14 following cell injection.
# [4] = 30 mg/kg repeated administration, day 20
Structure (SMILES),"radiologically observed structural changes ([1]; 10 mg/kg repeated administration, day 20)","loss of bone mineral density compared to vehicle treated animals [1, 4]","radiologically observed structural changes [1, 4]","radiologically observed structural changes in an animal model of bone cancer pain ([1]; summary statement, no dose given)","weight-bearing difference between contralateral and ipsilateral paw ([2]; 10 mg/kg p.o. repeated from day 10 post-inoculation, days 14, 17 and 20)","weight-bearing difference between contralateral and ipsilateral paw ([2]; 30 mg/kg p.o. repeated from day 10 post-inoculation, days 14, 17 and 20)",dose-dependence of the effect on weight-bearing difference ([2]; 10 versus 30 mg/kg p.o.),"static allodynia (punctuate stimulus), ipsilateral paw ([3]; 10 mg/kg p.o. repeated)","dynamic allodynia (light stroking of the skin), ipsilateral paw ([3]; 30 mg/kg p.o. repeated)","static allodynia (punctuate stimulus), ipsilateral paw ([3]; 30 mg/kg p.o. repeated)","weight-bearing difference between contralateral and ipsilateral paw ([2]; 30 mg/kg p.o. repeated, day 20)"
"Cc1ccc(Nc2c(F)cccc2Cl)c(CC(=O)O)c1 [COX189, 5-methyl-2-(2′-chloro-6′-fluoroanilino)-phenylacetic acid]",significantly inhibits,significantly inhibit,significantly inhibits,inhibit,significantly attenuates,significantly attenuates,not dose-dependent,significantly reverses,reaches statistical significance,significantly reverses,–
"Cc1onc(-c2ccccc2)c1-c1ccc(S(N)(=O)=O)cc1 [valdecoxib, reference compound]",–,–,–,–,–,–,–,–,–,significantly reverses,significant
